# Reference: patent US12521356B2, “Compositions and methods for treating pain, inflammation, infection, malaria, and sepsis” (Duke University, priority 2018, dated 2026)
# Columns and labels:
# GPR37 = target: T1, GPR37 (Homo sapiens, UniProt O15354); test: Dot blot binding assay with lysates of HEK293 cells with GPR37 cDNA or mock transfection; conditions: for binding to GPR37-containing lysates: blots coated with different concentrations, lysates of HEK293 cells with GPR37 cDNA
# T1 construct: host or cells: HEK293 flip-in cells
# T1 sequence (O15354 27-613): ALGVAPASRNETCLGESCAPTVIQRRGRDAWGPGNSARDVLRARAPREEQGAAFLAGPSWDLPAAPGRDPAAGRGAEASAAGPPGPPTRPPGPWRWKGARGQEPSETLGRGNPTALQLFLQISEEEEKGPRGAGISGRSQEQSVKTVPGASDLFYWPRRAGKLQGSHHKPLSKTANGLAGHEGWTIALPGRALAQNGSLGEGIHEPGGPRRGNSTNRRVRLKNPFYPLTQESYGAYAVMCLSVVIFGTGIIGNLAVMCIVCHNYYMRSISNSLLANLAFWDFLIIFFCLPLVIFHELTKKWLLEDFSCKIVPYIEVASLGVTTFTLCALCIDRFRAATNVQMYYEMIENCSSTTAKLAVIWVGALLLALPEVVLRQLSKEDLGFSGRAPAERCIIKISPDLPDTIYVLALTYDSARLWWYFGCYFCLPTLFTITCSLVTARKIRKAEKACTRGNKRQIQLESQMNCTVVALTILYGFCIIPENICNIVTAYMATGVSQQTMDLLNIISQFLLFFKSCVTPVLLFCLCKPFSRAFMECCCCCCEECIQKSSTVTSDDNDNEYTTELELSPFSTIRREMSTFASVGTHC
# Protocol: Lipids overlay assay. Lipids membrane coating and protein overlay assay was conducted as previously described (Ji R R, et al. Science 2016, 354, 572-577). Ethanol and chloroform soluble fatty acids were directly loaded on hydrophobic PVDF membrane (Bio-Rad). The fatty acids (NPD1, RvD1, RvE1, and DHA) coated membranes were dried and blocked with 1% BSA. The cell lysate and purified GPR37-V5 protein were incubated with the coating membrane for 2 h, and the binding was detected by anti-V5 tagged antibody (mouse, 1:1000, Thermo scientific, Catalog: 46-0705).
# HEK cell culture and transfection. HEK293 flip-in cell line was purchased from Duke Cell Culture Facility. Cells were cultured in high glucose (4.5 g/L) Dulbecco's Modified Eagle's Medium containing 10% (v/v) fetal bovine serum (Gibco). Transfection (2 μg cDNA) was performed with Lonza electroporation (Lonza) at 70% confluency and the transfected cells were cultured in the same growth medium for 48 h before use. The hGPR37-V5 pLenti304 plasmids were obtained from DNASU (Tempe, AZ), and hGPR32, hChemR23 and hALX pcDNA3 plasmids were provided by Dr. Serhan from Harvard Medical School, Boston.
# To determine whether NPD1 and TX14 bind to GPR37, we conducted dot blot assay by coating the blots with different concentrations of NPD1 and TX14 and included RvE1 as a control. The blots were then incubated with cell lysates from HEK293 cells with GPR37 cDNA or Mock transfection.
# [1] = test system: peritoneal macrophages (pMΦ); test: Phagocytosis assay with fluorescence-labeled zymosan particles in peritoneal macrophages; assay type: cell-based, mouse; conditions: for MΦ phagocytosis: pMΦ
# Protocol: Peritoneal macrophage culture. Peritoneal macrophages were collected by peritoneal lavage with 10 ml warm PBS containing of 1 mM EDTA. Cells were incubated in DMEM supplemented with 10% FBS at 37° C. for 2 h in petri dish and washed with PBS to eliminate non-adherent cells. The adherent cells were used as peritoneal macrophages. Peritoneal macrophages were used after 3 days of culture.
# Phagocytosis assay. The phagocytosis assay was modified from a previously described protocol (Sommer C, and Kress M. NeurosciLett. 2004, 361, 184-187). pHrodo® Red Zymosan Bioparticles (diameter, 3 μm, Thermo scientific, Catalog: P35364) were rinsed and reconstituted in RPMI medium. Particles were centrifuged (1 min at 100 g) onto adherent peritoneal macrophages at a ratio of 10:1 to synchronize binding and internalization. After 30 min incubation at 37° C., non-adherent beads were removed with cold PBS and cells were fixed with 2% formalin. Four optic fields were photographed with epifluorescence microscopy. Quantification of zymosan particles ingested by MΦ was conducted on at least 200 macrophages/condition/well, and triplicates were included for statistical analysis.
# We investigated whether iCa^2+ increases would trigger phagocytosis of pathogens such as zymosan by macrophages. Zymosan is a well-studied pathogen and activates TLR2 to trigger inflammation and inflammatory pain in rodents after intraplantar injection. We tested phagocytosis in pMΦ using fluorescence-labeled zymosan particles.
smiles,measurement,setting,value
"CC/C=C\C[C@H](O)\C=C/C=C/C=C/[C@H](O)C/C=C\C/C=C\CCC(=O)O [NPD1, neuroprotectin D1]",binding to GPR37-containing lysates,GPR37,dose-dependent binding
same,"binding affinity to GPR37, comparison",GPR37; dose-response curve analysis,higher binding affinity to GPR37 than TX14
same,binding of lysates from mock transfection (GPR37-negative),GPR37; mock-transfected HEK293 lysates,did not show binding activities
same,NPD1-evoked increases in phagocytic activity,[1]; Gpr37-deficient MΦ,abolished
same,percentage of pMΦ showing the phagocytosis of zymosan particles,[1]; wild-type pMΦ,increased
same,phagocytic activity (zymosan particles in pMΦ),"[1]; wild-type pMΦ, 30 nM for 30 min",dose-dependent increase in phagocytic activity
CC[C@@H](O)/C=C/C=C\C[C@@H](O)/C=C/C=C/C=C\[C@@H](O)CCCC(=O)O [RvE1],binding to GPR37-containing lysates,GPR37,not
same,MΦ phagocytosis,[1],induced
CC/C=C\C[C@H](O)/C=C/C=C\C=C\C=C\[C@@H](O)[C@@H](O)C/C=C\CCC(=O)O [RvD1],MΦ phagocytosis,[1],induced
